For one series, the system named is fungi. As to the kind of experiment: antifungal efficacy of formulated phenolics. Conditions: formulated per invention vs conventional. From the text:
The antifungal efficacy of these phenolics is improved by formulation in accordance with this invention.

The next series has as its system P. aeruginosa. Conditions: reference tests and manufacturer's literature; cited from earlier work.
In the next series the test system is Ceratocystis pilifera. As to the kind of experiment: sugar cane pineapple disease emergence test. Conditions: 56 days. The series is classed as in vivo. The protocol: The following composition was prepared and evaluated for control of pineapple disease of sugar cane (Ceratocystis pilifera):
Sugar cane seed was treated with this solution as diluted with a water carrier. Seed also was treated with benomyl, thiophanate methyl, Panoctine (9-aza-1,17-diquanidinoheptadecane triacetate), hot water and cold water. The results are tabulated below:
(2) Prior to planting, the seed was inoculated with the causal disease
organism, Ceratocystis pilifera. Emergence data was collected 56 days

In series [1] the test system is Penicillium brevi compactum (ATCC 16024). Conditions: ppm of active ingredient; "1" means 1 or fewer.
A further series relates to human skin. Kind of series: skin irritation on human subjects. The class given is in vivo. Conditions: undiluted on hands. The protocol:
These compositions were tested for skin irritation by rubbing 2 ml of each onto the hands of six test subjects. After 60 seconds, Compositions A, B and C were rinsed off the hands with water. […] The results with Compositions D and E were observably different.
The two compositions were tested for skin irritation by placing two drops of one composition on the skin at the inside of one elbow of five test subjects and two drops of the other composition on the same spot on the other elbow of each subject. In all cases, the composition was smeared over about a one-half square inch of skin and the subjects' reactions were noted over a 20-minute test period.
The compositions were tested on three subjects for skin irritation by spreading two drops of each composition over a one square inch area of skin just below one eye of each test subject and the other composition on the same spot beneath the other eye.

For series [2], the system named is Aspergillis terreus (ATCC 10609). Kind of series: minimum fungicidal concentration. The series is classed as cell-based. To be noted: ppm of active ingredient; "1" means 1 or fewer.
For series [3], the system named is Trichoderma viride (ATCC 8678). To be noted: ppm of active ingredient; "1" means 1 or fewer.
The subject of series [4] is Lenzites trabea (ATCC 11539). As to the kind of experiment: minimum fungicidal concentration. The class given is cell-based. Conditions: ppm of active ingredient; "1" means 1 or fewer.
The subject of series [5] is Candida albicans (ATCC 10259). Kind of series: minimum fungicidal concentration. To be noted: ppm of active ingredient; "1" means 1 or fewer. The series is classed as cell-based.
Series [6] has as its system rice spot (Helminthosporium orazae and Cerocospora orazae). The class given is in vivo. To be noted: 33 ppm active; 0 no pathogen control to 10 complete.
In series [7] the test system is bean mildew (Erysiphe polygoni). As to the kind of experiment: foliar spray on beans. To be noted: 33 ppm active; 0 no pathogen control to 10 complete. The series is classed as in vivo. The source says: (§1) The composition of Example 23 was screened for fungal pathogen response as a foliar spray on beans and rice. The rating scale is from 0 (no pathogen control) to 10 (complete pathogen control). The concentration of active ingredient (in a water carrier) of all compositions tested is 33 parts per million (ppm). The active ingredient in the composition of Example […] is expressed in terms of Cu-8-Q and the chemical as listed below for four comparative products. The comparative products tested were Karathane (2,4-dimitro-6-(2-octyl phenyl crotonate), Vitavax (5,6-dihydro-2-methyl-1,4-oxathiin-3-carboxanilide), Daconil (tetrachloroisophthalonitrile) and Maneb (manganese ethylenebisdithiocarbamate). The plants and diseases tested were bean mildew (Erysiphe polygoni), bean rust (Uromyces phaseoli typica) and rice spot (Helminthosporium orazae and Cerocospora orazae).
(§2) The rating scale is from 0 (no pathogen control) to 10 (complete pathegon control). The concentration of active ingredient (in a water carrier) of all compositions tested is 33 parts per million (ppm). The active ingredient in the composition of Example 4 is expressed in terms of Cu-8-Q and the chemical as listed below for four comparative products. […]

In series [8] the test system is fungal stain and mold growth. As to the kind of experiment: fungal stain and mold growth on dip-treated fresh-cut pine boards. Conditions: 28 days. As to the method: In the examples that follow, the effectiveness of the various formulations was determined by treating freshly cut pine boards by dip immersion for 10 seconds in the formulation to be tested. The boards, along with an untreated control, were placed in a chamber for the period of time indicated and maintained at a temperature of about 80° F. and a humidity of about 70%.
At the end of the test period, the boards were removed from the chamber and rated for effectiveness in terms of percentage of total surface area covered by fungal stain and mold growth. Accordingly, the lower the percentage, the higher the effectiveness of the test formulation. […]
As further evidence of the effectiveness of antimicrobials prepared in accordance with this invention, a number of tests were conducted utilizing DDBSA as the disubstituted aryl compound of this invention as a solution with the below-listed microbicidal agents. […] Fresh-cut green pine test boards were dip-treated and evaluated for stain and mold after 30 days in the aforementioned constant atmosphere test chamber:
These compositions were diluted 1:200 with a water carrier for use, and freshly cut pine boards were dip immersed in the formulation to be tested. […] After the test period, the specimen boards were evaluated in terms of percentage of total surface area covered by fungal stain and mold growth.

For another series, the system named is rice seedling emergence. The class given is in vivo.
The next series deals with Athlete's Foot. Kind of series: Athlete's Foot treatment. The series is classed as in vivo, human. To be noted: one case; Toluaftate 1% twice daily for eight days. From the text:
The second formulation in the preceding Example was applied once daily by eight test subjects to the skin between the toes for control of "Athlete's Foot". […] Two of the cases had previously resisted control with several over-the-counter brand name antifungals. One of the two, a virulent infection, had reached the bleeding stage from deeply cracked skin and a bacterial infection started, despite twice daily application for eight days of a 1% solution of Toluaftate which has gained broad recognition for effective control of "Athlete's Foot".

In series [9] the test system is bean rust (Uromyces phaseoli typica). Kind of series: foliar spray on beans. The class given is in vivo. To be noted: 33 ppm active; 0 no pathogen control to 10 complete.
Source text: as §1, §2

Consider `Oc1cc(Cl)cc(Cl)c1Cl` [2,3,5-trichlorophenol], for which the antifungal efficacy improvement entry in the series with fungi was “significantly higher than would be expected”.

Consider `Oc1ccc(Cl)cc1-c1ccccc1` [4-chloro-2-phenyl phenol], for which the phenol coefficient entry in the series on P. aeruginosa is reported as “less than 10”.

Regarding `CCCCNC(=O)n1c(NC(=O)OC)nc2ccccc21` [Benomyl, benomyl], in the series with Ceratocystis pilifera (150 ppm active), the “% Emergency, Inoculated” value is 50%.

Regarding `CCCCCCCCCCCCc1ccc(S(=O)(=O)O)cc1` [DDBSA, dodecyl benzene sulfonic acid], the “Minimum Fungicidal Concentration” value in series [1] was 100 ppm; in [2] it was 100 ppm; in series [3], 100 ppm; in [4] it was 100 ppm; in [5], 1,000 ppm. Besides, in the series with human skin, the skin sensation entry was “almost immediate warm and uncomfortable sensation”.

On to `N#Cc1c(Cl)c(Cl)c(Cl)c(C#N)c1Cl` [Daconil, tetrachloroisophthalonitrile], for which the “Rice Spot rating” value in series [6] is 10.

`CC=CC(=O)Oc1c(C(C)CCCCCC)cc([N+](=O)[O-])cc1[N+](=O)[O-]` (stereo not drawn) [Karathane, 2,4-dimitro-6-(2-octylphenyl crotonate]: in [7], the “Bean Mildew rating” value was determined as 10.

With `OB(O)O` [Orthoboric acid], the “% Stain and Mold” value in series [8] (0.25% in water) is 86%; in series [8] (0.50% in water), 62%.

Take `Oc1ccccc1-c1ccccc1` [Orthophenyl phenol]: the antifungal efficacy improvement result with fungi is on record as “significantly higher than would be expected”.

Regarding `CC1=C(C(=O)Nc2ccccc2)SCCO1` [PRODUCT D, 5,6dihydro-2-methyl-1,4-oxathiim-3-carboxanilide], in the series on rice seedling emergence (4 ounces/cwt, thirteen test plots), the “Improvement over Control” value is given as 12.3%. In addition, the “Performance Consistency” value in the series on rice seedling emergence (in vivo) was 71.3.

In the case of `N=C(N)NCCCCCCCCNCCCCCCCCNC(=N)N` [Panoctine, 9-aza-1,17-diquanidinoheptadecane triacetate], the results for the “% Emergency, Inoculated” value in the series with Ceratocystis pilifera (50 ppm active), in the series with Ceratocystis pilifera (100 ppm active) and with Ceratocystis pilifera (200 ppm active) were 48%, 48% and 53%, respectively.

`COC(=O)NC(=S)Nc1ccccc1NC(=S)NC(=O)OC` [Thiophanate methyl, thiophanate methyl]: the results for the “% Emergency, Inoculated” value in the series on Ceratocystis pilifera (50 ppm active), with Ceratocystis pilifera (150 ppm active) and in the series on Ceratocystis pilifera (300 ppm active) were 55%, 51% and 49%, respectively.

As for `Cc1cccc(N(C)C(=S)Oc2ccc3ccccc3c2)c1` [Toluaftate], the “control of resistant Athlete's Foot and bacterial infection” value in the series with Athlete's Foot is on record as “failed to control”.

For `CC1=C(C(=O)Nc2ccccc2)SCCO1` [Vitavax, 5,6-dihydro-2-methyl-1,4-oxathiin-3-carboxanilide], the “Bean Rust rating” value in [9] is recorded as 9.

Regarding `Oc1c(Cl)c(Cl)c(Cl)c(Cl)c1Cl` [pentachlorophenol], in the series on fungi, the antifungal efficacy improvement result is recorded as “significantly higher than would be expected”.

For “manganese ethylenebisdithiocarbamate [Maneb]”, the “Rice Spot rating” value in series [6] came to 8.

In the case of tetrachlorophenol, the antifungal efficacy improvement entry in the series with fungi is on record as “significantly higher than would be expected”.

These data come from US4602011A, “Antimicrobial compositions and methods of using same” (Chapman Chemical Company, priority 1982, dated 1986).
